Literature values in patent US20250352557A1, “COMPOSITIONS FOR PERITONEAL DRUG DELIVERY AND METHODS OF USE THEREOF” (Viramal Limited, priority 2023, published 2025).

Tests used:
[1] = vaginal administration; previously refractory patients
[2] = not given; remark: listed apart in the source

| Structure (SMILES) | Bioavailability with intake of foods high in fat (oral) | Time at which peak-plasma concentrations are reached (oral (Danatrol form)) [h] | Peak-plasma concentrations (oral (Danatrol form), absorbed from the gastrointestinal tract) [ng/mL] | Average consumption of pain relief tablets (e.g., naproxen) reduced by [1] [%] | Patient satisfaction [1] [%] | Log P [2] |
| --- | --- | --- | --- | --- | --- | --- |
| C#C[C@]1(O)CC[C@H]2[C@@H]3CCC4=Cc5oncc5C[C@]4(C)[C@H]3CC[C@@]21C [Danazol, 17α-Pregna-2,4-dien-20-yno [2,3-d]-isoxazol-17-ol] | tripled | 2 to 3 | 50 to 80 | 60 | 80 |  |
| CC(=O)[C@H]1CC[C@H]2[C@@H]3CCC4=CC(=O)CC[C@]4(C)[C@H]3CC[C@]12C [progesterone] |  |  |  |  |  | 3.82 |
